Values belong to the compound of their own block, whether it stands above or below them.
Experiments:
TYMS [1] = biological target: T1, TYMS (Homo sapiens, UniProt P04818); assay: Time-resolved SICFA, 5-FU in K562 cells; settings: 50 µM 5-FU, 30 min, 10% fixative
[2] = system: RNA post-transcriptional modification enzymes (PUS1, PUS3, PUS10, TRUB1, TRUB2, DUS3L, TRMT2A, EMG1); assay: Time-resolved SICFA, 5-FU in K562 cells; assay type: cell-based, Human; settings: 50 µM 5-FU, from 4 h, further enhanced with prolonged treatment
tRNA modifications = assay: Measurement of tRNA modification levels by LC-MS/MS; assay type: cell-based, Human; settings: K562 cells, 50 μM 5-FU
[3] = system: C-1-tetrahydrofolate synthase (MTHFD1); assay: SICFA of MTX-treated living K562 cells; assay type: cell-based, Human; settings: 2 µM MTX, 30 min
[4] = system: Methionine synthase (MTR); assay: SICFA of MTX-treated living K562 cells; assay type: cell-based, Human; settings: 2 µM MTX, 30 min
HDAC8 = biological target: T2, HDAC8 (Homo sapiens, UniProt Q9BY41); assay: SICFA and PISA10 stability shift, Panobinostat; settings: SICFA versus PISA10
T2 sequence (Q9BY41 1-377): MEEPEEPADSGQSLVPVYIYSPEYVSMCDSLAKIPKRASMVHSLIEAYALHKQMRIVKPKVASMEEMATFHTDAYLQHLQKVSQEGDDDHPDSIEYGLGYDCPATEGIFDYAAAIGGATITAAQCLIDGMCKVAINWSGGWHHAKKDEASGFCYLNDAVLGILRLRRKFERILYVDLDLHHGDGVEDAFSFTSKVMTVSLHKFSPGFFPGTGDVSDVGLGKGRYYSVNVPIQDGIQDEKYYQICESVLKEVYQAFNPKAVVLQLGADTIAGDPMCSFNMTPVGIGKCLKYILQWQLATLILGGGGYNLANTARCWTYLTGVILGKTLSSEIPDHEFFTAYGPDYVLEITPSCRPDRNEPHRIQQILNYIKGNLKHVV

HDAC6 = biological target: T3, HDAC6 (Homo sapiens, UniProt Q9UBN7); assay: SICFA and PISA10 stability shift, Panobinostat; settings: both methods (SICFA and PISA10)
T3 sequence (Q9UBN7 1-1215): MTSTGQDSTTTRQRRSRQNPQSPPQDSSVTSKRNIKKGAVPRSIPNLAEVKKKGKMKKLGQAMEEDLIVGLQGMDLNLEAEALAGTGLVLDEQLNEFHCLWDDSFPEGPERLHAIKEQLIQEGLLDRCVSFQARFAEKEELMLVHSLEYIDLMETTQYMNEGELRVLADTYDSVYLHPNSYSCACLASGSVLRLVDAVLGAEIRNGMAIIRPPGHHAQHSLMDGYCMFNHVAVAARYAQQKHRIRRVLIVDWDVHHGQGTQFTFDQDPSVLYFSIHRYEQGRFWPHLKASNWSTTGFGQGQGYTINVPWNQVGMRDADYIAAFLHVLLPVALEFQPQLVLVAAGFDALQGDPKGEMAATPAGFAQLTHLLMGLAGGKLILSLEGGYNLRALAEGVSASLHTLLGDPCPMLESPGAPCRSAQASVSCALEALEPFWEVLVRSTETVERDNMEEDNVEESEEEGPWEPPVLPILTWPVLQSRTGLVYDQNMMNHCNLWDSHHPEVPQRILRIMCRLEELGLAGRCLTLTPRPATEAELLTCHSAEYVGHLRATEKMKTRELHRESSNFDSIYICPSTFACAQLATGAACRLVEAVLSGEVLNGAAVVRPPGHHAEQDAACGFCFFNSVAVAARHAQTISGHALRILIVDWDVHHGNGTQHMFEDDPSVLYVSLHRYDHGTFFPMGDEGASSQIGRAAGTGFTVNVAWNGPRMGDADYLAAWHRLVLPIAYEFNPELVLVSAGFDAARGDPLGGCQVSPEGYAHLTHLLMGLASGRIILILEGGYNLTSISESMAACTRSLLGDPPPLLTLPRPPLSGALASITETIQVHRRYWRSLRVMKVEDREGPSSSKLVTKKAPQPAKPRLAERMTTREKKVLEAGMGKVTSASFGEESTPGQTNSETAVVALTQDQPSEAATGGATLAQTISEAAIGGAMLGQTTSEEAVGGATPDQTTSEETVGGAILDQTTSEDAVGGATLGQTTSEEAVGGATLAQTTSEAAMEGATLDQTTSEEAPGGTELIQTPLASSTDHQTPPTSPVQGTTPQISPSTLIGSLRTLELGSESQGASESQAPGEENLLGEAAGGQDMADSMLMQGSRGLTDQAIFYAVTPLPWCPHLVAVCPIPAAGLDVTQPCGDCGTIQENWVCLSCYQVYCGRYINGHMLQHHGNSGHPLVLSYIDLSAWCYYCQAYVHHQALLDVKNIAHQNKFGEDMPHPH

HDAC3 = HDAC3 (Homo sapiens, UniProt O15379); assay: SICFA and PISA10 stability shift, Panobinostat; settings: SICFA versus PISA10
HDAC2 = HDAC2 (Homo sapiens, UniProt Q92769); settings: both methods (SICFA and PISA10)
RB1 = assay: SICFA stability shift, SNS-032
RIPK2 = settings: 1 µM dasatinib, cell lysate, kinobeads ref 26; cited from earlier work
LYN = settings: 1 µM dasatinib, cell lysate, kinobeads ref 26; cited from earlier work
CDKN1C = assay: SICFA target identification, dasatinib; assay type: cell-based, Human; settings: dasatinib 1 μM, 30 min
YES1 = settings: 1 µM dasatinib, cell lysate, kinobeads ref 26; cited from earlier work
TYMS [5] = biological target: T1, TYMS; settings: raltitrexed 1 µM, 30 min

T1 sequence (P04818 2-313 limits assumed): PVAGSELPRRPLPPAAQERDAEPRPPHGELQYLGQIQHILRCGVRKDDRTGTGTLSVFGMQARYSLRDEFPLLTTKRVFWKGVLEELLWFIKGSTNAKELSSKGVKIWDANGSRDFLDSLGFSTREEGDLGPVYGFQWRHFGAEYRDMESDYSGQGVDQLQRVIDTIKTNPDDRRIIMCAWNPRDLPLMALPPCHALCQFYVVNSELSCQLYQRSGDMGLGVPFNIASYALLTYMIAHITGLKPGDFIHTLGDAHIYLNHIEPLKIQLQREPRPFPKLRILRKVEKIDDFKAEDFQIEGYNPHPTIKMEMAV
HDAC3, sequence (O15379 whole entry): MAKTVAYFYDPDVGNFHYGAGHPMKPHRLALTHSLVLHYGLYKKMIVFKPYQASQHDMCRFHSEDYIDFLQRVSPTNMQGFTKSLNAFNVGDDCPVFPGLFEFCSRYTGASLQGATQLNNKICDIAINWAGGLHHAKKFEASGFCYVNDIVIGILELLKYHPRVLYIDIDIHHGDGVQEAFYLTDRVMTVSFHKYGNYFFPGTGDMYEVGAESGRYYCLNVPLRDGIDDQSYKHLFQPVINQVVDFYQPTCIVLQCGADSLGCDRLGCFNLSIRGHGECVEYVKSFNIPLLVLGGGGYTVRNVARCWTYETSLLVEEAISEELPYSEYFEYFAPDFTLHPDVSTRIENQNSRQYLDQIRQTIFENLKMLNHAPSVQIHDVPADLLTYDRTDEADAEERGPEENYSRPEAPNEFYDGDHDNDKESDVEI
HDAC3, sequence (Q9Y618 389-480 partner limits assumed): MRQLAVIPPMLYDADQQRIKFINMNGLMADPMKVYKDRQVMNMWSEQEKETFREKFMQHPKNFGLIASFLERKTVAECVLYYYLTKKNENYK
HDAC2, sequence (Q92769 whole entry): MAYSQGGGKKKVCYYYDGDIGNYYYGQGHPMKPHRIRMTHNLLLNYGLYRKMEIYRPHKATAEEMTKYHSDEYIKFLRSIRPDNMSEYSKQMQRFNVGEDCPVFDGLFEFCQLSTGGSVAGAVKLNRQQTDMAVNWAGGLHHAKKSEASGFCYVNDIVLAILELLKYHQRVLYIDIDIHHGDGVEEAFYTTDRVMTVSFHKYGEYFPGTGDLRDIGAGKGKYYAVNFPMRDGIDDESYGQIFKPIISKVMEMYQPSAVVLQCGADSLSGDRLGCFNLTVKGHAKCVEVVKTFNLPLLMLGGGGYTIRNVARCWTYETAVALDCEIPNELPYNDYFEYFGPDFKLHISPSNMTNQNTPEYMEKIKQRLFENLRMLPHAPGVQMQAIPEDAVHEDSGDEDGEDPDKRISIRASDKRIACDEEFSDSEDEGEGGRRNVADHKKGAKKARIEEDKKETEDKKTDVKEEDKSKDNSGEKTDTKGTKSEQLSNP

TYMS stability, log2FC (TYMS [1]): 2.11
Structure (SMILES): O=c1[nH]cc(F)c(=O)[nH]1 [5-FU, 5-Fluorouracil]
stability of RNA post-transcriptional modification enzymes [2]: significantly increased | changes in RNA (tRNA) modifications (tRNA modifications; 4 h): no significant changes | tRNA modifications Ψ, ncm5U, hm5C, m5U (tRNA modifications; 24 h): significantly downregulated

Structure (SMILES): CN(Cc1cnc2nc(N)nc(N)c2n1)c1ccc(C(=O)N[C@@H](CCC(=O)O)C(=O)O)cc1 [MTX, Methotrexate]
MTHFD1 stability [3]: increased stability | MTR stability, log2FC [4]: −0.38

HDAC8 target identification (HDAC8): uniquely identified by SICFA | HDAC6 stability (HDAC6): consistent stabilization | HDAC3 stability (HDAC3): opposite trends | HDAC2 stability (HDAC2): consistent stabilization
Structure (SMILES): Cc1[nH]c2ccccc2c1CCNCc1ccc(/C=C/C(=O)NO)cc1 [Panobinostat]

Structure (SMILES): CC(C)(C)c1cnc(CSc2cnc(NC(=O)C3CCNCC3)s2)o1 [SNS-032]
stability shift of substrate RB1, log2FC (RB1): > 0.5

Structure (SMILES): Cc1nc(Nc2ncc(C(=O)Nc3c(C)cccc3Cl)s2)cc(N2CCN(CCO)CC2)n1 [dasatinib, Dasatinib]
reduction in binding (RIPK2): more than 50% | reduction in binding (LYN): more than 50% | stability of LYN's interacting partner CDKN1C (CDKN1C): reduced the stability | reduction in binding (YES1): more than 50%

soluble TYMS content vs control (western blot) (TYMS [5]; Jurkat cells, 10% and 12% fixative): markedly higher | target identification by SICFA LC-MS/MS (TYMS [5]; 10% fixative, pool of 5,534 proteins): leading candidate target
Structure (SMILES): Cc1nc2ccc(CN(C)c3ccc(C(=O)N[C@@H](CCC(=O)O)C(=O)O)s3)cc2c(=O)[nH]1 [raltitrexed, Raltitrexed]

Source: publication PMC12647918 (Nature Communications, 2025)
